Results as given in paper PMC12040169 (PLOS Biology, 2025).

experiment: in vitro; conditions: human, hela cells, % viability

Row | Compound | viability at 28.5 h, 10 µM
1 | O=C(NC(=S)N1CCN(c2ccc([N+](=O)[O-])c(N3CCOCC3)c2)CC1)c1cc2ccccc2o1 [CBK268335] | 109%
2 | Cc1ccc(NC(=O)Cn2nc(C)c([N+](=O)[O-])c2C)cc1Cl [CBK268336] | 98.5%
3 | Brc1ccc(OCc2ccccc2)c(CNCc2ccccn2)c1 [CBK268340C] | 99.9%
4 | Cc1ccc(-c2nn3c(C)nnc3c3ccccc23)cc1S(N)(=O)=O [CBK268342] | 97.3%
5 | COc1cccc(NC(=O)CSc2nnc(-c3ccccc3O)n2-c2ccccc2)c1 [CBK268343] | 108%
6 | COCCN1C(=O)c2ccc(C(=O)Nc3ccc(O)c(C(=O)O)c3)cc2C1=O [CBK268344] | 102%
7 | O=C(CSc1nnc(-c2cc(Br)ccc2O)n1-c1ccccc1)N1CCc2ccccc21 [CBK268346] | 105%
8 | COc1ccc(-c2nnc(SCC(=O)O)n2-c2cccc(C(F)(F)F)c2)cc1OC [CBK268347] | 88.7%
9 | O=C(COc1ccc(S(=O)(=O)N2CCOCC2)cc1)N1CCc2ccccc2C1 [CBK268350] | 92.1%
10 | O=C(Nc1cccc(S(=O)(=O)N2CCCC2)c1)c1nc[nH]n1 [CBK268353] | 103%
11 | CC(C)C(CCC(=O)Nc1ccccc1[N+](=O)[O-])C(=O)O (stereo not shown) [CBK268356] | 86.3%
12 | Cc1ccc(Cl)cc1NC(=O)c1ccc(NCCN2C(=O)C3C4C=CC(C4)C3C2=O)c([N+](=O)[O-])c1 (stereo not shown) [CBK268357] | 92.2%
13 | O=C(CCn1c(=O)oc2ccccc21)Nc1ccc(S(=O)(=O)N2CCCCC2)cc1 [CBK268365] | 82%
14 | CC(=O)NCCc1nc2cc(NC(=O)c3ccc([N+](=O)[O-])cc3)ccc2n1C [CBK268368] | 117%
15 | Cc1ccc(Cl)cc1NC(=O)c1cc(NC(=O)C2CCCCC2C(=O)O)ccc1N1CCCCC1 (stereo not shown) [CBK268371] | 87%
16 | O=S(=O)(Cc1ccc(Cl)cc1)NCCCn1ccnc1 [CBK268372] | 106%
17 | Cc1ccc(S(=O)(=O)NC(C)(C)CSc2nnc[nH]2)cc1 [CBK268374] | 81.5%
18 | Cc1cc(=O)n2c3ccccc3n(CC(O)CN3CCN(C(c4ccccc4)c4ccccc4)CC3)c2c1C#N (stereo not shown) [CBK268375] | 89.8%
19 | Cc1ccc([N+](=O)[O-])cc1NC(=O)CSc1nnc(-c2ccco2)o1 [CBK268378] | 117%
20 | CS(=O)(=O)Nc1ccc(C(=O)Nc2ccc(S(=O)(=O)N3CCOCC3)cc2)cc1 [CBK268379] | 117%
21 | O=C(CSCc1c(F)cccc1Cl)NCc1ccncc1 [CBK268381] | 87.1%
22 | CC(=O)Nc1ccc(S(=O)(=O)Nc2cc(C)c(-n3nc4ccccc4n3)cc2O)cc1 [CBK268382] | 81.2%

Row | Compound | viability at 28.5 h, 10 µM
23 | Cc1nn2c(-c3cccc(NC(=O)CN4CCOCC4)c3)nnc2c2ccccc12 [CBK268383] | 84.3%
24 | O=C(CSc1ccc(Cl)cc1)NNC(=O)c1cccc([N+](=O)[O-])c1 [CBK268384] | 93.5%
25 | COc1ccccc1NC(=O)CSCc1nc2ccccc2[nH]1 [CBK268385] | 105%
26 | O=C(NCCN1CCOCC1)NCC12CC3CC(C1)CC(c1ccccc1)(C3)C2 [CBK268388] | 89.1%
27 | O=S(=O)(c1ccc(NC(=S)NCc2cccnc2)cc1)N1CCOCC1 [CBK268396] | 72.8%
28 | O=C(O)c1cc(S(=O)(=O)N2CCOCC2)ccc1F [CBK268398] | 106%
29 | CSc1nc2ccc(S(=O)(=O)N3CCCC3)cc2s1 [CBK268400] | 104%
30 | COc1ccc(OC)c(Nc2nc(NCC3CCCO3)c3ccccc3n2)c1 (stereo not shown) [CBK268403C] | 90.9%
31 | Cn1c(CN2CCCCC2)nc2cc(NS(=O)(=O)c3ccc(Cl)cc3)ccc21 [CBK268404] | 82.8%
32 | Nn1c(SCc2cc(=O)[nH]c3ccccc23)nnc1C(O)c1ccccc1 (stereo not shown) [CBK268405] | 99.2%
33 | Cc1cccc(-c2nc(=S)c3c(n2CCCN(C)C)CCCC3)c1 [CBK268406] | 102%
34 | O=C(NCCc1ccccc1)c1ccccc1NS(=O)(=O)N1CCCC1 [CBK268407] | 80.5%
35 | O=[N+]([O-])c1ccc(N2CCN(Cc3c(O)ccc4ccccc34)CC2)cc1NCc1ccccc1 [CBK268408] | 105%
36 | CCOC(=O)c1ccc(-c2ccc(/C=C/c3nn4cnnc4c(O)c3[N+](=O)[O-])o2)cc1 [CBK268409] | 107%
37 | COc1ccc(Cl)cc1NC(=O)CSc1nc2cc3ccccc3cc2[nH]1 [CBK268410] | 82.1%
38 | O=C(COc1ccc(S(=O)(=O)N2CCCC2)cc1Cl)NCc1ccccn1 [CBK268412] | 91.3%
39 | O=C(O)CCN1C(=O)c2ccc(NC(=O)c3ccccc3Cl)cc2C1=O [CBK268413] | 83.7%
40 | Cc1ccc(Nc2c([N+](=O)[O-])nn(-c3ccccc3)[n+]2[O-])cc1F [CBK268414] | 102%
41 | Cn1c(CCN2CCOCC2)nc2cc(NC(=O)c3cccs3)ccc21 [CBK268415] | 97.9%
42 | COc1ccc(NC(=O)CSCc2cc(O)[nH]n2)cc1 [CBK268417] | 99.3%
43 | c1nc(NCCN2CCOCC2)c2c3c(sc2n1)CCCCC3 [CBK268418] | 103%
44 | O=C(O)COc1ccc(S(=O)(=O)N2CCCCC2)cc1Cl [CBK268419] | 105%

Row | Compound | viability at 28.5 h, 10 µM
45 | CC(C)(C)NC(=O)COc1ccc(CNCc2ccccn2)cc1 [CBK268420C] | 95.5%
46 | CC(C)(C)c1ccc(OCc2nnc(S)n2N)cc1 [CBK268421] | 89.1%
47 | O=C(CSc1oc(-c2ccco2)nc1S(=O)(=O)c1ccccc1)c1ccccc1 [CBK268424] | 96.9%
48 | CN(CC(=O)O)S(=O)(=O)c1cccc2cccc(Cl)c12 [CBK268433] | 107%
49 | COC(=O)Nc1ncc(CN2C(=O)c3ccccc3C2=O)s1 [CBK268434] | 111%
50 | O=C(CSCc1ccc(Br)cc1)NCc1ccccn1 [CBK268435] | 102%
51 | Cn1c(CCNC(=O)C2CCCCC2)nc2cc([N+](=O)[O-])ccc21 [CBK268440] | 106%
52 | Fc1cc(Cl)ccc1NC(=S)NCCN1CCOCC1 [CBK268441] | 98.4%
53 | O=C(O)COc1ccc(S(=O)(=O)Nc2ccc(F)cc2)cc1 [CBK268442] | 105%
54 | COCCN1C(=O)c2ccc(C(=O)Nc3cc(C(=O)O)cc(C(=O)O)c3)cc2C1=O [CBK268444] | 96.5%
55 | CN(CC(=O)O)S(=O)(=O)c1ccc(F)c2ccccc12 [CBK268447] | 98.5%
56 | CCC(=O)Nc1nc(-c2ccc(C(=O)OC)cc2)nc2c1c(=O)oc1ccccc12 [CBK268449] | 110%
57 | CN(C)S(=O)(=O)c1ccc(C(=O)Nc2ccc3ncn(C)c(=O)c3c2)cc1 [CBK268450] | 103%
58 | CN1CCN(C(=O)COc2ccc(S(=O)(=O)Nc3ccc(F)cc3)cc2)CC1 [CBK268454] | 94.5%
59 | Cc1ccc(Nc2nc(CSc3nnc(-c4ccccc4)o3)cs2)cc1 [CBK268455] | 99.7%
60 | CCOc1cc(C2Nc3ccccc3NC3=C2C(=O)C(C(=O)OC)C(C)C3)ccc1OC(C)C (stereo not shown) [CBK268456] | 111%
61 | O=C1c2ccc(-c3nc4ccc(Cl)cc4c(=O)o3)cc2C(=O)N1Cc1cccnc1 [CBK268460] | 104%
62 | O=C1c2ccccc2C(=O)N1Cc1nc2ccccc2c(=O)n1CCCN1CCOCC1 [CBK268463] | 96.1%
63 | CC(C)C(CCC(=O)Nc1ccc([N+](=O)[O-])cc1O)C(=O)O (stereo not shown) [CBK268464] | 102%
64 | Cc1nn(CC(=O)Nc2ccc3c(c2)nc(CN2CCCC2)n3C)c(=O)c2ccccc12 [CBK268465] | 97.5%
65 | CN1C(CC(O)c2ccccc2)CCCC1C(=O)c1ccccc1 (stereo not shown) [CBK268467C] | 98.8%
66 | O=C(CN1CCOCC1)Nc1ccc(S(=O)(=O)N2CCCC2)cc1 [CBK268468] | 103%

Row | Compound | viability at 28.5 h, 10 µM
67 | CCOC(=O)CC(=O)CSc1nc2nc(C)cc(C)n2n1 [CBK268469] | 99.8%
68 | COc1cc(NC(=O)C(C)Oc2cccc(Cl)c2)c(C(=O)O)cc1OC (stereo not shown) [CBK268470] | 92.4%
69 | O=C1c2ccccc2C(=O)N1Cc1nc2ccccc2c(=O)n1CCN1CCOCC1 [CBK268472] | 105%
70 | Cn1c(CN2CCN(C(=O)c3ccco3)CC2)nc2cc([N+](=O)[O-])ccc21 [CBK268473] | 108%
71 | CCc1nnc2sc(-c3ccc(C)c(NC(=O)c4ccc(N5CCCCC5)c([N+](=O)[O-])c4)c3)nn12 [CBK268476] | 91.5%
72 | O=C1COc2ccc(S(=O)(=O)NCCOc3ccccc3)cc2N1 [CBK268480] | 95.9%
73 | S=C(NNC(=S)Nc1ccc(Cl)c(Cl)c1)Nc1cccnc1 [CBK268483] | 96.2%
74 | O=[N+]([O-])c1cccc(S(=O)(=O)NCCOc2cccc3cccnc23)c1 [CBK268489] | 98.6%
75 | CS(=O)(=O)N1CCCC(C(=O)Nc2ccc(S(N)(=O)=O)cc2)C1 (stereo not shown) [CBK268490] | 83%
76 | CCCC12CN3CC(C)(CN(C1)C31C(=O)Nc3ccc(C)cc31)C2=O (stereo not shown) [CBK268491] | 113%
77 | Cc1ccc(CSCCNS(=O)(=O)c2ccc([N+](=O)[O-])cc2)cc1 [CBK268496] | 108%
78 | O=C(CSCc1c(F)cccc1Cl)Nc1ccc(S(=O)(=O)N2CCCCCC2)cc1 [CBK268497] | 100%
79 | O=C(O)c1ccc(-n2nnnc2Sc2nc([N+](=O)[O-])nn2Cc2ccccc2F)cc1 [CBK268498] | 91.5%
80 | Clc1ccc(-n2c(COc3cccc4cccnc34)nnc2SCc2ccccc2)cc1 [CBK268502] | 103%
81 | O=[N+]([O-])c1nn(-c2ccccc2)[n+]([O-])c1Nc1ccc(Br)cc1 [CBK268504] | 98.7%
82 | O=C(Cc1cccs1)Nc1cccc(C(=O)Nc2cccc(C(=O)O)c2)c1 [CBK268509] | 105%
83 | CC(C)(CSc1ccccn1)NS(=O)(=O)c1ccccc1 [CBK268513] | 102%
84 | Cc1c(C(N)=O)sc2ncn(CC(=O)NCCc3ccccc3)c(=O)c12 [CBK268514] | 90.4%
85 | CCn1c(SCC(=O)Nc2ccc(C(C)=O)cc2)nnc1-c1cc(Br)ccc1O [CBK268515] | 89.2%
